Key:
A2A = details: cited from earlier work
[1] = biological target: T1, adenosine receptor 2A (A2A) (Homo sapiens, UniProt P29274); assay: Competition binding assay using radioactive ligands (CEREP); details: fixed compound concentration of 10 μM;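 note: compounds screened at a single fixed 10 µM concentration for displacement of a radioligand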
T1 construct: CEREP (Poitiers, France), paid service
Description: (§1) Competition binding assay using radioactive ligands and functional assay monitoring cAMP were carried out as a paid service provided by CEREP (Poitiers, France). The functional assays monitoring Ca^2+ flux were carried out as a paid service provided by DiscoveRx (Carlsbad, CA).

[2] = biological target: T1, adenosine receptor 2A (A2A); assay: Functional assay monitoring Ca2+ flux (DiscoveRx); assay type: cell-based; details: read-out: IC50, Ca2+, M;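 note: concentration-response testing with 10 µM as highest concentration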
Description: as §1

[3] = biological target: T1, adenosine receptor 2A (A2A); assay: Functional antagonist assay monitoring cAMP (CEREP); assay type: cell-based; details: concentration-response up to 10 μM; read-out: IC50, cAMP;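 note: eight-point concentration-response from 0 to 10 µM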
Description: as §1

T1 sequence (P29274 whole entry): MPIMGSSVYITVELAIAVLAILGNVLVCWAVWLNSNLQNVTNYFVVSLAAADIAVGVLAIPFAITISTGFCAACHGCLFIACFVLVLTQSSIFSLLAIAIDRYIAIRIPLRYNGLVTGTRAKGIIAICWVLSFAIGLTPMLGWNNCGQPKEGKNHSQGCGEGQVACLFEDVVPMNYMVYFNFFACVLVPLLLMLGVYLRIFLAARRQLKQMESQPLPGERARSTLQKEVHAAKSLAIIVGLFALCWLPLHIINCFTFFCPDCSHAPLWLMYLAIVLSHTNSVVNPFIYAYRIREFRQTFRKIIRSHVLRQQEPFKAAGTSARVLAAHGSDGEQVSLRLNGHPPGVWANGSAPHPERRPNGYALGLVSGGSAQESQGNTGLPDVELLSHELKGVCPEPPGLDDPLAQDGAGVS

CC(=O)CCCCn1c(=O)c2c(ncn2C)n(C)c1=O [Pentoxifylline]
IC50 (A2A): ~10 µM | inhibition at 10 µM [1]: < 50% | inhibition [2]: < 50% | inhibition at up to 10 µM [3]: < 50%

Cn1c(=O)c2c(ncn2CC(O)CO)n(C)c1=O (centres unmarked) [dyphylline]
IC50 (A2A): ~10 µM

From paper PMC6317804, “The integration of pharmacophore-based 3D QSAR modeling and virtual screening in safety profiling: A case study to identify antagonistic activities against adenosine receptor, A2A, using 1,897 known drugs” (PLoS ONE, 2019)
